Data from patent publication US20240336567A1, “PESTICIDAL AND HERBICIDAL COMPOUNDS AND METHODS OF USE THEREOF” (AG Plenus Ltd, priority 2021, published 2024).
Read-outs that look alike come from different tables or passages of the source.

How the values were obtained:
LOLPE = assay: In-planta LTP pre-emergence, visual phenotype; assay type: in vivo, Lolium perenne; settings: monocot
Experimental: (§1) A basic panel of 8 weed species (Table 3) were sowed in 4×4×7 cm plastic pots containing inert sand (Sweet sand), intensively washed using osmosis water. Each specie was sowed in a separate pot. In each pot 10-15 seeds were sowed according to the specie viability. Sowing was performed one day before application. The plants were grown for 21 days in a controlled greenhouse (26±2° C. day 20±2° C. night). Hood irrigation (tap water+Shefer 5:3:8 8 mM) was given at a 50% water content by weight. Compounds were soluble in water (DDW), and commercial herbicide control was soluble in formulation B (Table 4). Application was conducted with an industrial sprayer (TeeJet 6502E nozzle) at a rate of 2 kg/ha and spray volume of […]. Pre-emergence advanced dose response experiment application was conducted at six rates between 1-0.0312 kg/ha and spray volume of […]. Percentage of emergence was evaluated at 15 DAA. Visual phenotyping was recorded using a scale of 0-6 (0: no visible effect, 6: maximum effect) at 18 DAA. All experiments included an untreated control, a solvent control and a positive control (commercial herbicide A.I.). Statistical analysis for visual phenotyping determined by a median value of ≥3.5 and Fisher test (pval≤0.05). Statistical analysis for plant emergence determined by % emergence ≥50 and T test (pval≤0.05), as well as Wilcox test (pval≤0.05).

POAAN = assay: In-planta LTP pre-emergence, visual phenotype; assay type: in vivo, Poa annua; settings: monocot; for pest or weed control at 2000 g/ha: Poa annua, 432 h, read-out: IG Inhibited growth (% effect)
Experimental: as §1

AMAPA [1] = assay: In-planta LTP pre-emergence, visual phenotype; assay type: in vivo, Amaranthus palmeri; settings: dicot; for pest or weed control at 2000 g/ha: Amaranthus palmeri, 432 h, read-out: IG Inhibited growth (% effect)
Experimental: as §1

AMAPA [2] = assay: In-planta LTP post-emergence, visual phenotype; assay type: in vivo, Amaranthus palmeri; settings: dicot
Experimental: A basic panel of eight weed species (Table 3) sowed in 4×4×7 cm plastic pots containing a garden mix (klasmann). Each specie was sowed in a separate pot. In each pot, 10-15 seeds were sowed according to the specie viability. Timing of application determined at a 1-2 true leaf stage. The plants grew for 30 days in a controlled greenhouse (26±2° C. day, 20±2° C. night). Hood irrigation (tap water+Shefer 5:3:8 8 mM) was given at a 50% water content by weight. Two days before application, the tested plants thinned down to three plants per pot. Compounds were soluble in water (DDW), and commercial herbicide control was soluble in formulation B (Table 4). Before application, 1% (v/v) crop oil and 0.02% (v/v) surfactant (Tergitol™ 15-5-7) were added to the solution. Application was conducted with an industrial sprayer (TeeJet 6502E nozzle) at a rate of 2 kg/ha and spray volume of […]. Plants were evaluated at 3 time points (4, 8, 12 days after application (DAA)). At each time point, visual phenotyping was recorded using a scale of 0-6 (0: no visible effect, 6: maximum effect). At 12 DAA, plants foliage was harvested, dried and weighed for dry weight analysis.
Post-emergence advanced dose response experiment included 4 species: SETVI, ECHCO, AMAPA, ABUTH (Tables 3, 5). Application was conducted at six rates between 0.6-0.0187 kg/ha and spray volume of […]. Plants were evaluated at 4 time points (6, 12, 18 and 26 DAA). At each time point, visual phenotyping was recorded using a scale of 0-6 (0: no visible effect, 6: maximum effect). At 26 DAA, plants foliage was harvested, dried and weighed for dry weight analysis.
Post-emergence advanced wide panel experiment included 24 weed species (Table 5). Application was conducted at 2 rates of 2 kg/ha and 0.25 kg/ha and spray volume of […]. Visual phenotyping was recorded at 4, 11, 17 and 20 DAA using a scale of 0-6 (0: no visible effect, 6: maximum effect). At 21 DAA, plants foliage was harvested, dried, and weighed for dry weight analysis. All experiments included an untreated control, a solvent control, and a positive control (commercial herbicide A.I.). Statistical analysis for visual phenotyping determined by a median value of ≥3.5 and Fisher test (pval≤0.05). Statistical analysis for dry weight determined by % inhibition ≥50 and T test (pval≤0.05), as well as Wilcox test (pval≤0.05).

SETVI = assay: In-planta LTP pre-emergence, visual phenotype; assay type: in vivo, Setaria viridis; settings: Setaria viridis, 432 h, monocot
Method in brief: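 Compounds in water sprayed pre-emergence one day after sowing 10-15 seeds per pot in washed sand, at 2 kg/ha or six rates from 1-0.0312 kg/ha. Greenhouse 26/20° C day/night. Visual phenotype scored 0-6 at 18 DAA; effect called at median ≥3.5 with Fisher test p≤0.05.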

Arabidopsis thaliana = assay: HTPS - Dicot - Pre-emergence; assay type: in vivo; settings: N/A: not active; for Emax: read-out: HTPS - Dicot - Pre Max effect
Experimental: Arabidopsis thaliana seeds were sown in 96 well plates filled with irrigated Sweet sand (10%>clay) that is washed from salts and minerals using tap water. 5-10 seeds were sown in the center of each well. 7-8 days post sowing, at 2 true leaves stage, thinning out was performed to ensure that compound application is done on a single plant per well. The plates were placed in a controlled greenhouse in a random order inside a bath which allows flooding irrigation with tap water supplemented with a fertilizer. Applied compounds were dissolved into a final solution of 50% acetone, 49.9% DDW, 0.1% tween-20. A 96 well plate was used as a stock plate for preparing application solutions for 8 repeats. Each row contained different concentrations per chemical. Maximal concentration for application was 1.5 Kg/Ha and dilution factor is 2.5. Chemical application was performed one day after thinning out in a chemical hood. 5 μL applied on first two true leaves in each well using 12 channel pipettes. Data collection: RGB (red, green, blue) data for green area per well was documented using camera. Data is collected at a few time points during the experiment: one day after thinning and before chemical application, two-, six- or nine-days post application. During the last two documentations, visual phenotyping was performed. Data analysis: Given RGB results and visual phenotype scores, a student t-test conducted to compare between treatment and control performance for continuous data (RGB) and Fisher exact test to analyze the non-continuous data (phenotypic scores). Dose-Response curves are generated for each treatment to infer ED50 and max. inhibition parameters, using treatment's log concentration range as the […] variable and normalized green area. These experiments are conducted similarly except that either Arabidopsis thaliana or Eragrostis teff seeds were sowed (5-10 or 5-7, respectively), plant thinning out was not performed, compound dissolved into a final solution of 50% acetone, 49.9% DDW, compound application was done at 30 μL volume per well directly on sowed soil before plant emergence and data was collected 10 or 7 days after chemical application on dicot or monocot plants, respectively. Plate imaging performed at 11 and 18 DAA. RGB data for green area per well was documented and used to extract % inhibition. Dose-Response curves were built for each treatment to infer ED50, ED75 and ED90 parameters, using treatment's log concentration range as the independent variable and normalized green area as the dependent variable. Treatments were compared to controls performance given RGB results and using student's t-test (p-val≤0.05).

[3] = read-out: DE Disturbed emergence (% effect)
[4] = read-out: IG Inhibited growth (% effect)

C[C@@H](N)COc1cccc(C(=O)O)c1 [Compound 154]
IG Inhibited growth (% effect) (LOLPE): IG (60) %
DE Disturbed emergence (% effect) (POAAN): DE (100) %
pest or weed control at 2000 g/ha (AMAPA [1]): 60%
BL Bleaching (% effect) (AMAPA [2]): BL (60) %
pest or weed control at 2000 g/ha (SETVI; [3]): 100%

CC(N)COc1cccc(C(=O)O)c1 (centres unmarked) [Compound 106]
DE Disturbed emergence (% effect) (LOLPE): DE (60) %
HTPS - Dicot - Pre ED50 (Arabidopsis thaliana): 33 g/ha
Emax (Arabidopsis thaliana): 100%
pest or weed control at 2000 g/ha (POAAN): 100%
DE Disturbed emergence (% effect) (POAAN): DE (100) %
pest or weed control at 2000 g/ha (AMAPA [1]): 60%
DAB Disturbed apical bud (% effect) (AMAPA [1]): DAB (60), %
BL Bleaching (% effect) (AMAPA [2]): BL^2 (60) %
pest or weed control at 2000 g/ha (SETVI; [3]): 100%
pest or weed control at 2000 g/ha (SETVI; [4]): 100%

CCCCOC(=O)c1cccc(OCC(C)N)c1 (centres unmarked) [Compound 112]
IG Inhibited growth (% effect) (LOLPE): IG (40) %
HTPS - Dicot - Pre ED50 (Arabidopsis thaliana): 20 g/ha
Emax (Arabidopsis thaliana): 100%
pest or weed control at 2000 g/ha (POAAN): 100%
DE Disturbed emergence (% effect) (POAAN): DE (100), %
pest or weed control at 2000 g/ha (AMAPA [1]): 60%
IG Inhibited growth (% effect) (AMAPA [2]): IG (60), %
pest or weed control at 2000 g/ha (SETVI; [3]): 80%
pest or weed control at 2000 g/ha (SETVI; [4]): 100%

C#CCOC(=O)c1cccc(OCC(C)N)c1 (centres unmarked) [Compound 111]
HTPS - Dicot - Pre ED50 (Arabidopsis thaliana): 24 g/ha
Emax (Arabidopsis thaliana): 100%
pest or weed control at 2000 g/ha (POAAN): 100%
DE Disturbed emergence (% effect) (POAAN): DE (100), %
pest or weed control at 2000 g/ha (AMAPA [1]): 60%
BL Bleaching (% effect) (AMAPA [2]): BL (40) %
pest or weed control at 2000 g/ha (SETVI; [3]): 100%
pest or weed control at 2000 g/ha (SETVI; [4]): 100%
